From ChEMBL document CHEMBL1828514, “Comparison of the reactivity of antimalarial 1,2,4,5-tetraoxanes with 1,2,4-trioxolanes in the presence of ferrous iron salts, heme, and ferrous iron salts/phosphatidylcholine” (J Med Chem, 2011)
The source made the active and inactive calls. The calls are words filed in the database; no cut-off is given here.

What was measured:
[1] = Induction of oxyl radical formation from reaction with ferrous salt in the presence of 2,2,6,6-tetramethyl-1-piperidine-1-oxyl after 24 hrs by spin-trapping and LC/MS analysis; type: physicochemical
Plasmodium falciparum = assay: Antimalarial activity against Plasmodium falciparum 3D7 assessed as inhibition of [3H]hypoxanthine incorporation after 48 hrs by liquid scintillation counting; type: functional, organism-based
[2] = Induction of TEMPO adduct formation after 24 hrs in presence of 2,2,6,6-tetramethyl-1-piperidine-1-oxyl and ferrous sulfate by LC/MS analysis
[3] = Induction of 2-Linoleoyl-1-palmitoyl-sn-phosphotidylcholine peroxidation in the presence of ferrous sulphate after 24 hrs by ESI/MS analysis; type: functional
[4] = Induction of oxyl radical formation from reaction with iron(2) gluconate after 12 hrs by LC/MS analysis; type: physicochemical
[5] = Induction of alkylated heme adduct formation from reaction with ferrous heme by LC/MS analysis
[6] = Induction of oxyl radical formation from reaction with ferrous heme assessed as decrease in heme concentration by HPLC analysis relative to control; type: physicochemical; set-up: scale not given: the % may be the effect or the level left
[7] = Chemical stability of the compound assessed as iron-mediated decomposition after 24 hrs by LC/MS analysis; type: physicochemical
[8] = Induction of 2-Linoleoyl-1-palmitoyl-sn-phosphotidylcholine peroxidation in the presence of Ferrous sulphate after 24 hrs by LC/MS analysis; type: functional
[9] = Induction of formation of demetalated adduct from reaction with iron(2) tetraphenylporphyrin; type: physicochemical
[10] = Induction of formation of Manganese-TPC adduct from reaction with manganese(2) tetraphenylporphyrin; type: physicochemical
[11] = Induction of formation of chlorin-type adduct from reaction with iron(2) tetraphenylporphyrin; type: physicochemical

| Compound | IC50 (Plasmodium falciparum) | Activity [2] | Activity [5] | Activity [6] | Stability [7] | Activity [8] | also measured |
| --- | --- | --- | --- | --- | --- | --- | --- |
| CC(C)(N)CNC(=O)C[C@H]1CC[C@]2(CC1)OO[C@]1(O2)C2CC3CC(C2)CC1C3 [OZ277] |  |  |  |  |  |  | Activity [1]: Active |
| CCOC(=O)CC1CCC2(CC1)OOC1(OO2)C2CC3CC(C2)CC1C3 (centres undefined) | 10 nM | Active |  |  |  |  |  |
| O=C(CC1CCC2(CC1)OOC1(OO2)C2CC3CC(C2)CC1C3)NCc1ccc(F)cc1 (centres undefined) | 3 nM |  |  |  |  |  | Activity [3]: Active; Activity [4]: Active |
| O=C(CC1CCC2(CC1)OOC1(OO2)C2CC3CC(C2)CC1C3)N1CCOCC1 (centres undefined) | 5.2 nM |  | Active |  |  |  |  |
| O=C(CC1CCC2(CC1)OOC1(OO2)C2CC3CC(C2)CC1C3)NC1CC1 (centres undefined) | 2.3 nM | Active |  |  |  |  |  |
| C[C@@H]1CC[C@H]2[C@@H](C)C(=O)O[C@@H]3O[C@@]4(C)CC[C@@H]1[C@]32OO4 [ARTEMISININ] |  |  |  | 70% |  |  | Activity [3]: inactive |
| O=C(CC1CCC2(CC1)OOC1(OO2)C2CC3CC(C2)CC1C3)N1CCN(C2CCNCC2)CC1 (centres undefined) | 0.4 nM |  | Active | 38% | Unstable | Active |  |
| CC(C)CN1CCN(C(=O)C[C@H]2CC[C@]3(CC2)OO[C@]2(O3)C3CC4CC(C3)CC2C4)CC1 | 2.1 nM |  | Active |  | Unstable | Active |  |
| CN1CCN(C2CCN(C(=O)C[C@H]3CC[C@]4(CC3)OO[C@]3(O4)C4CC5CC(C4)CC3C5)CC2)CC1 | 0.5 nM |  |  |  | Unstable | Active |  |
| CC(CN1CCNCC1)C(=O)CC1CCC2(CC1)OOC1(OO2)C2CC3CC(C2)CC1C3 (centres undefined) | 1.4 nM | Active | Active | 53% | Unstable | Active | Activity [1]: Active; Activity [9]: Active; Activity [10]: Active; Activity [11]: Active |
